Test system: plaque
Settings: in chewing gum

How did the “effect on plaque in hard-to-reach places (in words)” value turn out when `CC(=O)[O-].CC(=O)[O-].[Zn+2]` [zinc acetate] was run?
The value was “worked in the “hard-to-reach” places with high efficiency”.

Source: patent publication US8512681B2 (GUMLINK A/S, priority 2005, dated 2013)
